Literature values in publication PMC9663686, “Proline, hydroxyproline, and pyrrolidone carboxylic acid derivatives as highly efficient but reversible transdermal permeation enhancers” (Scientific Reports, 2022).

How the values were obtained:
HaCaT and 3T3 cells = conditions: read-out: in vitro cellular toxicities on HaCaT and 3T3 cells; cited from earlier work
rat skin = conditions: rats; cited from earlier work
rats = conditions: cited from earlier work

## CCCCCCCCCCCCOC(=O)CCCCCN.CCCCCCCCCCCCOC(=O)CCCCCNC(=O)O [Transkarbam 12]
HaCaT and 3T3 cells
  IC50: 21 to 26 µM
Rat skin
  in vivo dermal irritation and toxicity: low in vivo dermal irritation and toxicity
rats
  acute oral toxicity in rats: no acute oral toxicity in rats
